molecular target: SHP2 (Homo sapiens (Human), UniProt Q06124); experiment: SHP2 Allosteric Inhibition Assay; type: biochemical; details: 0.5 nM SHP2 with 0.5 μM peptide IRS1_pY1172(dPEG8)pY1222; surrogate substrate DiFMUP; 25° C.; read-out: IC50
Excerpt: SHP2 Allosteric Inhibition Assay
SHP2 is allosterically activated through binding of bis-tyrosyl-phosphorylated peptides to its Src Homology 2 (SH2) domains. The latter activation step leads to the release of the auto-inhibitory interface of SHP2, which in turn renders the SHP2 protein tyrosine phosphatase (PTP) active and available for substrate recognition and reaction catalysis. The catalytic activity of SHP2 was monitored using the surrogate substrate DiFMUP in a prompt fluorescence assay format.
After 30-60 minutes incubation at 25° C., the surrogate substrate DiFMUP (Invitrogen, cat #D6567) was added to the reaction and incubated at 25° C. for 30 minutes. […] The inhibitor dose response curves were analyzed using normalized IC50 regression curve fitting with control based normalization.

Sequence of SHP2 (Q06124 whole entry): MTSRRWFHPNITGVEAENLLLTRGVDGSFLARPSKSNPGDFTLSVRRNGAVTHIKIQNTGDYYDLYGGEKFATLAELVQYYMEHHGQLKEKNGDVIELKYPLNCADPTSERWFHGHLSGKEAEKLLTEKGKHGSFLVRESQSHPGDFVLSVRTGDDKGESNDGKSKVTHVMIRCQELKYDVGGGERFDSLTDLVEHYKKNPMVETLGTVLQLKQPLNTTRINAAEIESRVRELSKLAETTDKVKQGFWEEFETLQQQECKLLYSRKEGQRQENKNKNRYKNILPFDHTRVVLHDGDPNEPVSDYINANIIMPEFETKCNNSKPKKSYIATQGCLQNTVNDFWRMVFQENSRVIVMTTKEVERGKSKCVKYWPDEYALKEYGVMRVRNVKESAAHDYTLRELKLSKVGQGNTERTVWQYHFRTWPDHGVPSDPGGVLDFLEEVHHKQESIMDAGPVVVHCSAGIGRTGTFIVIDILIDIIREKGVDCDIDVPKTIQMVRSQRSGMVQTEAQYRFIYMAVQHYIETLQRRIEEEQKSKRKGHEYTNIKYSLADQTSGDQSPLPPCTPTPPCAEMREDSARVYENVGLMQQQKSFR

**Q.** C[C@@H]1OCC2(CCN(c3nc4[nH]nc(Sc5ccnc(N)c5Cl)c4c(=O)n3C)CC2)[C@@H]1N [Example 13, 3-((2-Amino-3-chloropyridin-4-yl)thio)-6-((3S,4S)-4-amino-3-methyl-2-oxa-8-azaspiro[4.5]decan-8-yl)-5-methyl-1,5-dihydro-4H-pyrazolo[3,4-d]pyrimidin-4-one] was tested. Which IC50 did it give?
**A.** The IC50 was 0.027 µM.

same assay, conditions: 0.5 nM SHP2 with 0.5 μM peptide IRS1_pY1172(dPEG8)pY1222; surrogate substrate DiFMUP; 25° C.; read-out: SHP2 IC50

**Q.** How did the IC50 turn out when Cn1c(N2CCC3(CCCCC3N)CC2)nc2[nH]nc(-c3cccc(Cl)c3Cl)c2c1=O (centres unmarked) [Example 24, 6-(7-amino-3-azaspiro[5.5]undecan-3-yl)-3-(2,3-dichlorophenyl)-5-methyl-1,5-dihydro-4H-pyrazolo[3,4-d]pyrimidin-4-one] was run?
**A.** The IC50 was 0.072 µM.

**Q.** Which IC50 does the source give for Cn1c(N2CCC3(CC[C@@H]3N)CC2)nc2[nH]nc(-c3cccc(Cl)c3Cl)c2c1=O [Example 17, (S)-6-(1-amino-7-azaspiro[3.5]nonan-7-yl)-3-(2,3-dichlorophenyl)-5-methyl-1,5-dihydro-4H-pyrazolo[3,4-d]pyrimidin-4-one] here?
**A.** Its IC50 is 0.044 µM.

**Q.** How did the IC50 turn out when C[C@@H]1OCC2(CCN(c3nc4[nH]nc(-c5cc(F)ccc5F)c4c(=O)n3C)CC2)[C@@H]1N [Example 62, 6-((3S,4S)-4-amino-3-methyl-2-oxa-8-azaspiro[4.5]decan-8-yl)-3-(2,5-difluorophenyl)-5-methyl-1,5-dihydro-4H-pyrazolo[3,4-d]pyrimidin-4-one] was run?
**A.** Its IC50 is 0.017 µM.

**Q.** For Cn1c(N2CCC3(CC2)CC(F)(F)C[C@H]3N)nc2[nH]nc(-c3ccnc(NC4CC4)c3Cl)c2c1=O [Example 50, (R)-6-(1-amino-3,3-difluoro-8-azaspiro[4.5]decan-8-yl)-3-(3-chloro-2-(cyclopropylamino)pyridin-4-yl)-5-methyl-1,5-dihydro-4H-pyrazolo[3,4-d]pyrimidin-4-one], which IC50 is on record?
**A.** The IC50 was 0.035 µM.

**Q.** Which IC50 does the source give for C[C@@H]1OCC2(CCN(c3nc4[nH]nc(-c5cc(F)cc(F)c5)c4c(=O)n3C)CC2)[C@@H]1N [Example 65, 6-((3S,4S)-4-amino-3-methyl-2-oxa-8-azaspiro[4.5]decan-8-yl)-3-(3,5-difluorophenyl)-5-methyl-1,5-dihydro-4H-pyrazolo[3,4-d]pyrimidin-4-one] here?
**A.** The IC50 was 0.038 µM.

**Q.** With C[C@@H]1OCC2(CCN(c3nc4[nH]nc(-c5ccccc5)c4c(=O)n3C)CC2)[C@@H]1N [Example 41, 6-((3S,4S)-4-amino-3-methyl-2-oxa-8-azaspiro[4.5]decan-8-yl)-5-methyl-3-phenyl-1,5-dihydro-4H-pyrazolo[3,4-d]pyrimidin-4-one] as the compound, how does the IC50 read?
**A.** Its IC50 is 0.033 µM.

**Q.** For Cc1nc(N(C)C)ccc1-c1n[nH]c2nc(N3CCC4(CC3)CO[C@@H](C)[C@H]4N)n(C)c(=O)c12 [Example 40, 6-((3S,4S)-4-amino-3-methyl-2-oxa-8-azaspiro[4.5]decan-8-yl)-3-(6-(dimethylamino)-2-methylpyridin-3-yl)-5-methyl-1,5-dihydro-4H-pyrazolo[3,4-d]pyrimidin-4-one], which IC50 is on record?
**A.** The IC50 was 0.089 µM.

**Q.** How did the IC50 turn out when C[C@@H]1OCC2(CCN(c3nc4[nH]nc(-c5ccnc(Br)c5)c4c(=O)n3C)CC2)[C@@H]1N [Example 34, 6-((3S,4S)-4-amino-3-methyl-2-oxa-8-azaspiro[4.5]decan-8-yl)-3-(2-bromopyridin-4-yl)-5-methyl-1,5-dihydro-4H-pyrazolo[3,4-d]pyrimidin-4-one] was run?
**A.** The IC50 was 0.027 µM.

**Q.** Which IC50 does the source give for Cn1c(N2CCC3(CCC[C@H]3N)CC2)nc2[nH]nc(-c3ccccc3)c2c1=O [Example 19, (R)-6-(1-amino-8-azaspiro[4.5]decan-8-yl)-5-methyl-3-phenyl-1,5-dihydro-4H-pyrazolo[3,4-d]pyrimidin-4-one] here?
**A.** Its IC50 is 0.046 µM.

**Q.** C[C@@H]1OCC2(CCN(c3nc4[nH]nc(-c5ccnc(Cl)c5)c4c(=O)n3C)CC2)[C@@H]1N [Example 44, 6-((3S,4S)-4-amino-3-methyl-2-oxa-8-azaspiro[4.5]decan-8-yl)-3-(2-chloropyridin-4-yl)-5-methyl-1,5-dihydro-4H-pyrazolo[3,4-d]pyrimidin-4-one] was tested. Which IC50 did it give?
**A.** Its IC50 is 0.016 µM.

**Q.** With Cn1c(N2CCC3(CCC[C@H]3N)CC2)nc2[nH]nc(-c3ccnc(Cl)c3Cl)c2c1=O [Example 22, (R)-6-(1-amino-8-azaspiro[4.5]decan-8-yl)-3-(2,3-dichloropyridin-4-yl)-5-methyl-1,5-dihydro-4H-pyrazolo[3,4-d]pyrimidin-4-one] as the compound, how does the IC50 read?
**A.** The IC50 was 0.057 µM.

**Q.** For C[C@@H]1OCC2(CCN(c3nc4[nH]nc(-c5ccnc(N6CCCC6)c5Cl)c4c(=O)n3C)CC2)[C@@H]1N [Example 31, 6-((3S,4S)-4-amino-3-methyl-2-oxa-8-azaspiro[4.5]decan-8-yl)-3-(3-chloro-2-(pyrrolidin-1-yl)pyridin-4-yl)-5-methyl-1,5-dihydro-4H-pyrazolo[3,4-d]pyrimidin-4-one], which IC50 is on record?
**A.** Its IC50 is 0.012 µM.

**Q.** With Cc1nc(N)ccc1-c1n[nH]c2nc(N3CCC4(CC3)C[C@@H](C(F)(F)F)C[C@H]4N)n(C)c(=O)c12 [Example 53, 3-(6-amino-2-methylpyridin-3-yl)-6-((1R,3R)-1-amino-3-(trifluoromethyl)-8-azaspiro[4.5]decan-8-yl)-5-methyl-1,5-dihydro-4H-pyrazolo[3,4-d]pyrimidin-4-one] as the compound, how does the IC50 read?
**A.** The IC50 was 0.036 µM.

**Q.** C[C@@H]1OCC2(CCN(c3nc4[nH]nc(-c5ccnc(N(C)C)c5Cl)c4c(=O)n3C)CC2)[C@@H]1N [Example 71, 6-((3S,4S)-4-amino-3-methyl-2-oxa-8-azaspiro[4.5]decan-8-yl)-3-(3-chloro-2-(dimethylamino)pyridin-4-yl)-5-methyl-1,5-dihydro-4H-pyrazolo[3,4-d]pyrimidin-4-one] was tested. Which IC50 did it give?
**A.** The IC50 was 0.022 µM.

**Q.** Which IC50 does the source give for CNc1nccc(-c2n[nH]c3nc(N4CCC5(CC4)CO[C@@H](C)[C@H]5N)n(C)c(=O)c23)c1Cl [Example 32, 6-((3S,4S)-4-amino-3-methyl-2-oxa-8-azaspiro[4.5]decan-8-yl)-3-(3-chloro-2-(methylamino)pyridin-4-yl)-5-methyl-1,5-dihydro-4H-pyrazolo[3,4-d]pyrimidin-4-one] here?
**A.** The IC50 was 0.054 µM.

**Q.** Which IC50 does the source give for Cc1nc(N)ccc1-c1n[nH]c2nc(N3CCC4(CC3)C[C@@H](C)C[C@H]4N)n(C)c(=O)c12 [Example 48, 3-(6-amino-2-methylpyridin-3-yl)-6-((1R,3R)-1-amino-3-methyl-8-azaspiro[4.5]decan-8-yl)-5-methyl-1,5-dihydro-4H-pyrazolo[3,4-d]pyrimidin-4-one] here?
**A.** Its IC50 is 0.016 µM.

**Q.** Cn1c(N2CCC3(CC2)COC[C@H]3N)nc2[nH]nc(-c3cccc(Cl)c3Cl)c2c1=O [Example 20, (S)-6-(4-amino-2-oxa-8-azaspiro[4.5]decan-8-yl)-3-(2,3-dichlorophenyl)-5-methyl-1,5-dihydro-4H-pyrazolo[3,4-d]pyrimidin-4-one] was tested. Which IC50 did it give?
**A.** Its IC50 is 0.05 µM.

**Q.** For C[C@@H]1OCC2(CCN(c3nc4[nH]nc(-c5ccc(F)c(F)c5)c4c(=O)n3C)CC2)[C@@H]1N [Example 58, 6-((3S,4S)-4-amino-3-methyl-2-oxa-8-azaspiro[4.5]decan-8-yl)-3-(3,4-difluorophenyl)-5-methyl-1,5-dihydro-4H-pyrazolo[3,4-d]pyrimidin-4-one], which IC50 is on record?
**A.** Its IC50 is 0.011 µM.

**Q.** C[C@@H]1OCC2(CCN(c3nc4[nH]nc(-c5cccc(F)c5F)c4c(=O)n3C)CC2)[C@@H]1N [Example 60, 6-((3S,4S)-4-amino-3-methyl-2-oxa-8-azaspiro[4.5]decan-8-yl)-3-(2,3-difluorophenyl)-5-methyl-1,5-dihydro-4H-pyrazolo[3,4-d]pyrimidin-4-one] was tested. Which IC50 did it give?
**A.** The IC50 was 0.013 µM.

— patent US10975080B2, “Compounds and compositions for inhibiting the activity of SHP2” (NOVARTIS AG, priority 2015, dated 2021)
